Where a name gives a salt, the structure may show the parent alone. Read-outs that look alike come from different tables or passages of the source.
How the values were obtained:
Plasmodium falciparum = experiment: Antimalarial activity in vitro towards Plasmodium falciparum ([3H]hypoxanthine incorporation, infected human erythrocytes); type: cell-based; settings: Erythrocyte, approximately 48 hours; for IC50 upper bound (active at tested concentration): Table I; for IC50: Table II
Experimental: Evaluation of the antimalarial activity in vitro is carried out according to the method of DESJARDINS, CANFIELD, HATNES and CHULAY (Antimicrob. Agents Chemother., 1979, 16, 710-718). A compound according to the invention is brought into contact for approximately 48 hours with human erythrocytes infected with Plasmodium falciparum. When a radioactive nucleic acid precursor, hypoxanthine, is added to the preparation, only erythrocytes infected with Plasmodium and not affected by the said compound incorporate this precursor. […] The results are presented in Table I below, in the form of an IC50 (or ED50) (concentration of compound capable of inhibiting in vitro the growth of the parasites by 50%).
The derivatives according to the above examples are tested at three concentrations, 100, 33 and 10 nanomolar.

[1] = tested on: Plasmodium vinckei, petteri or chabaudi; experiment: Antimalarial activity in vivo, infected mice, 4 days; design: species or system petteri or chabaudi (male Swiss mice); settings: ip, I.P., twice daily for 4 consecutive days
Experimental: This activity is measured according to the test described by PETERS W. (Chemotherapy and Drug resistance in Malaria, 1970). A compound according to the invention is administered for 4 consecutive days to mice infected beforehand with malaria using Plasmodium vinckei, petteri or chabaudi.
The said compound is dissolved in 0.9% aqueous NaCl solution or, where appropriate, in 10% aqueous gum arabic solution. The preparations are thus administered intraperitoneally or subcutaneously to male Swiss mice of average weight 30 to 40 g which have been infected beforehand intravenously with Plasmodium petterei or P. chabaudi (10^6 infected cells). The compound is administered twice daily for 4 consecutive days, the first injection being performed 2 hours after infestation, and the second 10 hours after. The parasitaemia is determined by means of a smear on the day following the end of the treatment.
The results are collated in Table II, in the form of an ED50 (dose of compound administered in vivo capable of a 50% inhibition of the growth of the parasites).

[2] = Semi-chronic toxicity in vivo; settings: mouse, mice
[3] = cited from earlier work
[4] = cited from earlier work; remark: listed apart in the source
Babesia [5] = settings: cited from earlier work
Babesia [6] = settings: cited from earlier work; remark: listed apart in the source
[7] = 33 nM, read-out: Plasmodium IC50 in vitro resp. at 33 nM
[8] = 100 nM, read-out: Plasmodium IC50 in vitro resp. 100 nM
[9] = ip, I.P., 2 injections daily for four days, read-out: Toxicity LD50 I.P.
[10] = po, P.O., semi-chronic, four days, read-out: Toxicity LD50 P.O.

Row | Structure (SMILES) | IC50 upper bound (active at tested concentration) (Plasmodium falciparum; [7]) [nM] | IC50 upper bound (active at tested concentration) (Plasmodium falciparum; [8]) [nM] | other results
1 | Cc1cccn(CCCCCCCCCCCCn2cccc(C)c2=N)c1=N [Example 2, 1,1'-(1,12-dodecanediyl)bis(3-methyl-2(1H)-pyridinimine) dihydrobromide] | < 33 | < 100 | IC50 (Plasmodium falciparum): 1.8 nM; ED50 [1]: 3 mg/kg; LD50 [2, 9]: 20 mg/kg; LD50 [2, 10]: > 500 mg/kg
2 | Cc1ccc(=N)n(CCCCCCCCCCCCn2cc(C)ccc2=N)c1 [Example 3, 1,1'-(1,12-dodecanediyl)bis(5-methyl-2(1H)-pyridinimine) dihydrobromide] | < 33 | < 100 | IC50 (Plasmodium falciparum): 0.5 nM; ED50 [1]: 3 mg/kg; LD50 [2, 9]: 6.5 mg/kg; LD50 [2, 10]: > 300 mg/kg
3 | N=c1ccc(-c2ccccc2)cn1CCCCCCCCCCCCn1cc(-c2ccccc2)ccc1=N [Example 5, 1,1'-(1,12-dodecanediyl)bis(5-phenyl-2(1H)-pyridinimine) dihydrobromide] | < 33 | < 100 | 
4 | N=c1c(OCc2ccccc2)cccn1CCCCCCCCCCCCn1cccc(OCc2ccccc2)c1=N [Example 6, 1,1'-(1,12-dodecanediyl)bis(3-phenylmethoxy-2(1H)-pyridinimine) dihydrobromide] | < 33 | < 100 | 
5 | Cc1ccc(-c2ccn(CCCCCCCCCCCCn3ccc(-c4ccc(C)cc4)cc3=N)c(=N)c2)cc1 [Example 7, 1,1'-(1,12-dodecanediyl)bis(4-(4-methyl-phenyl)-2(1H)-pyridinimine) dihydrobromide] | < 33 | < 100 | 
6 | CCCCc1cccn(CCCCCCCCCCCCn2cccc(CCCC)c2=N)c1=N [Example 8, 1,1'-(1,12-dodecanediyl)bis(3-n-butyl-2(1H)-pyridinimine) dihydrobromide] | < 33 | < 100 | 
7 | N=c1ccc(Cl)cn1CCCCCCCCCCCCn1cc(Cl)ccc1=N [Example 9, 1,1'-(1,12-dodecanediyl)bis(5-chloro-2(1H)-pyridinimine) dihydrobromide] | < 33 | < 100 | IC50 (Plasmodium falciparum): 1.4 nM; ED50 [1]: 4 mg/kg; LD50 [2, 9]: 10 mg/kg; LD50 [2, 10]: > 200 mg/kg
8 | Cc1ccn(CCCCCCn2ccc(C)cc2=N)c(=N)c1 [Example 14, 1,1'-(1,6-hexanediyl)bis(4-methyl-2(1H)-pyridinimine) dihydrobromide] | > 33 | < 100 | 
9 | CCc1ccn(CCCCCCCCCCCCCCCCn2ccc(CC)cc2=N)c(=N)c1 [Example 16, 1,1'-(1,16-hexadecanediyl)bis(4-ethyl-2(1H)-pyridinimine) dihydrobromide] | > 33 | < 100 | 
10 | CCc1cccn(CCCCCCCCCCCCn2cccc(CC)c2=N)c1=N [Example 23, 1,1'-(1,12-dodecanediyl)bis(3-ethyl-2(1H)-pyridinimine)] | > 33 | < 100 | IC50 (Plasmodium falciparum): 7.2 nM; ED50 [1]: > 5 mg/kg; LD50 [2, 9]: 23 mg/kg; LD50 [2, 10]: > 400 mg/kg
11 | CCc1ccc(=N)n(CCCCCCCCCCCCn2cc(CC)ccc2=N)c1 [Example 25, 1,1'-(1,12-dodecanediyl)bis(5-ethyl-2(1H)-pyridinimine)] | < 33 | < 100 | IC50 (Plasmodium falciparum): 3.8 nM; ED50 [1]: > 5 mg/kg; LD50 [2, 9]: 7.5 mg/kg; LD50 [2, 10]: > 200 mg/kg
12 | CCc1cccc(=N)n1CCCCCCCCCCCCn1c(CC)cccc1=N [Example 26, 1,1'-(1,12-dodecanediyl)bis(6-ethyl-2(1H)-pyridinimine)] | < 33 | < 100 | 
13 | CO[C@H]1O[C@@H]2O[C@@]3(C)CC[C@H]4[C@H](C)CC[C@@H]([C@H]1C)[C@@]24OO3 [artemether] |  |  | water-solubility [3]: low water-solubility; half-life [4]: short half-life
14 | C[C@@H]1CC[C@H]2[C@@H](C)C(=O)O[C@@H]3O[C@@]4(C)CC[C@@H]1[C@]32OO4 [artemisinine] |  |  | water-solubility [3]: low water-solubility
15 | C[C@H]1[C@H](OC(=O)CCC(=O)O)O[C@@H]2O[C@@]3(C)CC[C@H]4[C@H](C)CC[C@@H]1[C@@]24OO3 [artesunate] |  |  | water-solubility [3]: low water-solubility; half-life [4]: short half-life
16 | CCO[C@H]1O[C@@H]2O[C@@]3(C)CC[C@H]4[C@H](C)CC[C@@H]([C@H]1C)[C@@]24OO3 [artether] |  |  | water-solubility [3]: low water-solubility; half-life [4]: short half-life
17 | C[C@H]1[C@@H](O)O[C@@H]2O[C@@]3(C)CC[C@H]4[C@H](C)CC[C@@H]1[C@@]24OO3 [dihydroartemisinine] |  |  | water-solubility [3]: low water-solubility; half-life [4]: short half-life
18 | O=C1C(O)=C(CCCCCCCCC2CCCCC2)C(=O)c2ccccc21 [menoctone] |  |  | activity in vitro against Babesia (Babesia [5]): active in vitro; results in vivo against Babesia (Babesia [6]): without, however, giving good results in vivo

Now from value to molecule, other results behind:

Row | IC50 upper bound (active at tested concentration) (Plasmodium falciparum; [7]) [nM] | IC50 upper bound (active at tested concentration) (Plasmodium falciparum; [8]) [nM] | Structure (SMILES) | other results
19 | < 33 | < 100 | Cc1cccc(=N)n1CCCCCCCCCCCCn1c(C)cccc1=N [Example 4, 1,1'-(1,12-dodecanediyl)bis(6-methyl-2(1H)-pyridinimine) dihydrobromide] | 
20 | < 33 | < 100 | N=c1cc(Br)ccn1CCCCCCCCCCCCn1ccc(Br)cc1=N [Example 10, 1,1'-(1,12-dodecanediyl)bis(4-bromo-2(1H)-pyridinimine) dihydrobromide] | 
21 | < 33 | < 100 | N=c1c(Cl)cc(C(F)(F)F)cn1CCCCCCCCCCCCn1cc(C(F)(F)F)cc(Cl)c1=N [Example 11, 1,1'-(1,12-dodecanediyl)bis(3-chloro-5-trifluoromethyl-2(1H)-pyridinimine) dihydrobromide] | 
22 | > 33 | < 100 | Cc1ccc(=N)n(CCCCCCCCn2cc(C)ccc2=N)c1 [Example 12, 1,1'-(1,8-octanediyl)bis(5-methyl-2(1H)-pyridinimine) dihydrobromide] | 
23 | < 33 | < 100 | Cc1ccn(CCCCCCCCn2ccc(C)cc2=N)c(=N)c1 [Example 13] | 
24 | < 33 | < 100 | Cc1ccn(CCCCCCCCCCCCCCCCn2ccc(C)cc2=N)c(=N)c1 [Example 15, 1,1'-(1,16-hexadecanediyl)bis(4-methyl-2(1H)-pyridiniminedihydrobromide] | 
25 | < 33 | < 100 | Cc1ccn(CCCCCCCCCCCCn2ccc(C)c(C)c2=N)c(=N)c1C [Example 17, 1,1'-(1,12-dodecanediyl)bis(3,4-dimethyl-2(1H)-pyridinimine)] | 
26 | < 33 | < 100 | Cc1cc(C)c(=N)n(CCCCCCCCCCCCn2cc(C)cc(C)c2=N)c1 [Example 18, 1,1'-(1,12-dodecanediyl)bis(3,5-dimethyl-2(1H)-pyridinimine)] | 
27 | < 33 | < 100 | Cc1ccc(C)n(CCCCCCCCCCCCn2c(C)ccc(C)c2=N)c1=N [Example 19, 1,1'-(1,12-dodecanediyl)bis(3,6-dimethyl-2(1H)-pyridinimine)] | 
28 | < 33 | < 100 | Cc1cc(=N)n(CCCCCCCCCCCCn2cc(C)c(C)cc2=N)cc1C [Example 20, 1,1'-(1,12-dodecanediyl)bis(4,5-dimethyl-2(1H)-pyridinimine)] | 
29 | < 33 | < 100 | Cc1cc(C)n(CCCCCCCCCCCCn2c(C)cc(C)cc2=N)c(=N)c1 [Example 21, 1,1'-(1,12-dodecanediyl)bis(4,6-dimethyl-2(1H)-pyridinimine)] | 
30 | < 33 | < 100 | Cc1ccc(=N)n(CCCCCCCCCCCCn2c(C)c(C)ccc2=N)c1C [Example 22, 1,1'-(1,12-dodecanediyl)bis(5,6-dimethyl-2(1H)-pyridinimine)] | 
31 |  | > 100 | CCc1ccn(CCCCCCCCCCCCn2ccc(CC)cc2=N)c(=N)c1 [Example 24, 1,1'-(1,12-dodecanediyl)bis(4-ethyl-2(1H)-pyridinimine)] | 
